Source: patent US10487068B2, “Pyridazine derivatives as RORc modulators” (Genentech, Inc., priority 2015, dated 2019)

Each compound was assayed against T1, RORc ligand binding domain (Homo sapiens, UniProt P51449) (assay: In Vitro RORc Ligand Binding Assay). Details: RORc IC50, radioligand 25-[3H]hydroxycholesterol 6 nM; 0.6 ug/mL RORc receptor; 3 h at 25° C.
T1 sequence (P51449 269-508 limits assumed): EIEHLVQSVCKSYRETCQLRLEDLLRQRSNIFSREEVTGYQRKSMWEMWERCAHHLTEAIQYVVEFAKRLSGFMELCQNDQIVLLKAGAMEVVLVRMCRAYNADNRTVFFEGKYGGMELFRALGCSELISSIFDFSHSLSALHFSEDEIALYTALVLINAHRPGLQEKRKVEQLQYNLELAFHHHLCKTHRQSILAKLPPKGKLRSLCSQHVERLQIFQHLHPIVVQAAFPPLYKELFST

Question: `CC(C)(O)c1nc(-c2cncc([C@@]34CC[C@@H](c5cc(-c6c(F)cccc6F)nnc53)C4(C)C)n2)oc1Cl` [Example 432, 2-(5-chloro-2-(6-((5R,8S)-3-(2,6-difluorophenyl)-9,9-dimethyl-5,6,7,8-tetrahydro-5,8-methanocinnolin-8-yl)pyrazin-2-yl)oxazol-4-yl)propan-2-ol] was tested. Which IC50 did it give?
Answer: Its IC50 is 18 nM.

Question: `CC(C)(O)c1nc(-c2cncc([C@@]34CC[C@@H](c5cc(-c6c(F)cccc6F)nnc53)C4(C)C)n2)oc1CO` [Example 433, 2-(2-(6-((5R,8S)-3-(2,6-difluorophenyl)-9,9-dimethyl-5,6,7,8-tetrahydro-5,8-methanocinnolin-8-yl)pyrazin-2-yl)-5-(hydroxymethyl)oxazol-4-yl)propan-2-ol] was tested. Which IC50 did it give?
Answer: The IC50 was 38.5 nM.

Question: `CCS(=O)(=O)Cc1coc(-c2cncc([C@@]34CC[C@@H](c5cc(-c6c(F)cccc6F)nnc53)C4(C)C)n2)n1` [Example 434, 2-(6-((5R,8S)-3-(2,6-difluorophenyl)-9,9-dimethyl-5,6,7,8-tetrahydro-5,8-methanocinnolin-8-yl)pyrazin-2-yl)-4-((ethylsulfonyl)methyl)oxazole] was tested. Which IC50 did it give?
Answer: Its IC50 is 11 nM.

Question: Which IC50 does the source give for `CC1(C)[C@H]2CC[C@]1(c1cncc(-c3nc(CS(=O)(=O)C4CC4)co3)n1)c1nnc(-c3c(F)cccc3F)cc12` [Example 435, 4-((cyclopropylsulfonyl)methyl)-2-(6-((5R,8S)-3-(2,6-difluorophenyl)-9,9-dimethyl-5,6,7,8-tetrahydro-5,8-methanocinnolin-8-yl)pyrazin-2-yl)oxazole] here?
Answer: Its IC50 is 11.7 nM.

Question: With `COC(=O)c1n[nH]c(=O)cc1[C@@]12CC[C@@H](c3cc(-c4c(F)cccc4F)nnc31)C2(C)C` [Example 436] as the compound, how does the IC50 read?
Answer: Its IC50 is 192 nM.
